Experimental data reported in ChEMBL document CHEMBL4400534, “Pharmacophore-based design of novel 3-hydroxypyrimidine-2,4-dione subtypes as inhibitors of HIV reverse transcriptase-associated RNase H: Tolerance of a nonflexible linker” (Eur J Med Chem, 2019).

Experiments:
[1] = target: T1, Human immunodeficiency virus type 1 reverse transcriptase (Human immunodeficiency virus 1, UniProt Q72547); assay: Inhibition of HIV1 reverse transcriptase RNase H expressed in Escherichia coli JM109 using RNA/DNA duplex substrate HTS-1
[2] = target: T1, Human immunodeficiency virus type 1 reverse transcriptase; assay: Inhibition of HIV1 reverse transcriptase polymerase using deoxynucleotide triphosphates and 18 nucleotide DNA primer annealed to 100 nucleotide DNA template after 30 mins
[3] = target: Human immunodeficiency virus type 1 integrase (Human immunodeficiency virus 1, UniProt Q7ZJM1); assay: Inhibition of HIV1 integrase strand transfer activity using 5'-biotinylated oligonucleotide as substrate preincubated for 10 mins followed by substrate addition and measured after 30 mins
Sequence of Human immunodeficiency virus type 1 integrase (Q7ZJM1 whole entry): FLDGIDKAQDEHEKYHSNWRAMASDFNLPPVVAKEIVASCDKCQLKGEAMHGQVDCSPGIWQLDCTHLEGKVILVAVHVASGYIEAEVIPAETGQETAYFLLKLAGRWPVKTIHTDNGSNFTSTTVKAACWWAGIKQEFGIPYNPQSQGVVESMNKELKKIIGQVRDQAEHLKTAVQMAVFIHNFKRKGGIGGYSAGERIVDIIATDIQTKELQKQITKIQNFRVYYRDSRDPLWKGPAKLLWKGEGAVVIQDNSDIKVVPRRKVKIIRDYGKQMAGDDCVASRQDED

[4] = test system: Human immunodeficiency virus 1; assay: Antiviral activity against HIV-1 infected in human P4R5 cells assessed as reduction in viral replication preincubated for 24 hrs followed by viral infection and measured after 48 hrs by MAGI assay; format: functional, organism-based
[5] = Cytotoxicity against human P4R5 cells after 72 hrs by XTT assay; format: cell-based

SMILES: CCOCn1c(C(=O)c2cccc(-c3ccccc3)c2)cc(=O)n(O)c1=O
- IC50 [1]: 1.1 µM
- IC50 [2]: > 10 µM
- IC50 [3]: > 100 µM
- EC50 [4]: 12 µM
- CC50 [5]: 73 µM

SMILES: Cc1cc(-c2ccc(C(=O)c3cc(=O)n(O)c(=O)[nH]3)cc2)ccc1F
- IC50 [1]: 0.019 µM
- IC50 [2]: 8.3 µM
- IC50 [3]: 4.3 µM
- EC50 [4]: > 20 µM
- CC50 [5]: > 100 µM

SMILES: Cc1ccc(-c2ccc(C(=O)c3cc(=O)n(O)c(=O)[nH]3)cc2)cc1
- IC50 [1]: 0.021 µM
- IC50 [2]: > 10 µM
- IC50 [3]: 10 µM
- EC50 [4]: 4.7 µM
- CC50 [5]: 22 µM

SMILES: O=C(c1ccc(-c2ccc(F)cc2)cc1)c1cc(=O)n(O)c(=O)[nH]1
- IC50 [1]: 0.027 µM
- IC50 [2]: > 10 µM
- IC50 [3]: 6.7 µM
- EC50 [4]: 9 µM
- CC50 [5]: > 100 µM

SMILES: COC(=O)c1ccc(-c2ccc(C(=O)c3cc(=O)n(O)c(=O)[nH]3)cc2)cc1
- IC50 [1]: 0.015 µM
- IC50 [2]: > 10 µM
- IC50 [3]: 6.7 µM
- EC50 [4]: > 20 µM
- CC50 [5]: > 100 µM

SMILES: O=C(c1ccc(-c2ccccc2)cc1)c1cc(=O)n(O)c(=O)[nH]1
- IC50 [1]: 0.022 µM
- IC50 [2]: > 10 µM
- IC50 [3]: 2.5 µM
- EC50 [4]: 15 µM
- CC50 [5]: > 100 µM

SMILES: Cc1ccc(C(=O)c2cc(=O)n(O)c(=O)[nH]2)cc1
- IC50 [1]: 0.093 µM
- IC50 [2]: > 10 µM
- IC50 [3]: 7.2 µM
- EC50 [4]: > 20 µM
- CC50 [5]: 48 µM

SMILES: N#Cc1ccc(-c2ccc(C(=O)c3cc(=O)n(O)c(=O)[nH]3)cc2)cc1
- IC50 [1]: 0.024 µM
- IC50 [2]: 7.7 µM
- IC50 [3]: 0.53 µM
- EC50 [4]: > 20 µM
- CC50 [5]: > 100 µM

SMILES: O=C(c1ccc(-c2ccc(Cl)c(F)c2)cc1)c1cc(=O)n(O)c(=O)[nH]1
- IC50 [1]: 0.023 µM
- IC50 [2]: > 10 µM
- IC50 [3]: 0.37 µM
- EC50 [4]: 18 µM
- CC50 [5]: > 100 µM

SMILES: Cc1cc(C)cc(-c2ccc(C(=O)c3cc(=O)n(O)c(=O)[nH]3)cc2)c1
- IC50 [1]: 0.063 µM
- IC50 [2]: > 10 µM
- IC50 [3]: 3.5 µM
- EC50 [4]: > 20 µM
- CC50 [5]: > 100 µM

SMILES: O=C(c1cccc(-c2ccccc2)c1)c1cc(=O)n(O)c(=O)[nH]1
- IC50 [1]: 0.017 µM
- IC50 [2]: > 10 µM
- IC50 [3]: 7.1 µM
- EC50 [4]: > 20 µM
- CC50 [5]: > 100 µM

SMILES: O=C(c1ccc(-c2ccc(C(F)(F)F)cc2)cc1)c1cc(=O)n(O)c(=O)[nH]1
- IC50 [1]: 0.026 µM
- IC50 [2]: > 10 µM
- IC50 [3]: > 100 µM
- EC50 [4]: 5.3 µM
- CC50 [5]: 17 µM

SMILES: Cc1cc(C)cc(C(=O)c2cc(=O)n(O)c(=O)[nH]2)c1
- IC50 [1]: 0.09 µM
- IC50 [2]: > 10 µM
- IC50 [3]: 4.9 µM
- EC50 [4]: 9.5 µM
- CC50 [5]: 21 µM

SMILES: CCOCn1c(C(=O)c2ccc(-c3ccccc3)cc2)cc(=O)n(O)c1=O
- IC50 [1]: 0.42 µM
- IC50 [2]: > 10 µM
- IC50 [3]: > 100 µM
- EC50 [4]: > 20 µM
- CC50 [5]: > 100 µM

SMILES: O=C(c1ccc(F)cc1)c1cc(=O)n(O)c(=O)[nH]1
- IC50 [1]: 0.085 µM
- IC50 [2]: > 10 µM
- IC50 [3]: 4 µM
- EC50 [4]: > 20 µM
- CC50 [5]: > 100 µM

SMILES: CCOCn1c(C(C#N)c2ccc(-c3ccccc3)cc2)cc(=O)n(O)c1=O (stereo not given)
- IC50 [1]: 0.76 µM
- IC50 [2]: > 10 µM
- IC50 [3]: > 100 µM
- EC50 [4]: > 20 µM
- CC50 [5]: > 100 µM

SMILES: COc1ccc(-c2ccc(C(=O)c3cc(=O)n(O)c(=O)[nH]3)cc2)cc1OC
- IC50 [1]: 0.074 µM
- IC50 [2]: 9.6 µM
- IC50 [3]: 0.33 µM
- EC50 [4]: 6.7 µM
- CC50 [5]: 8.4 µM

SMILES: O=C(c1ccc(C(F)(F)F)cc1)c1cc(=O)n(O)c(=O)[nH]1
- IC50 [1]: 0.081 µM
- IC50 [2]: > 10 µM
- IC50 [3]: 2.1 µM
- EC50 [4]: > 20 µM
- CC50 [5]: > 100 µM

SMILES: CCOCn1c(C(C#N)c2cc(C)cc(C)c2)cc(=O)n(O)c1=O (stereo not given)
- IC50 [1]: 3.7 µM
- IC50 [2]: > 10 µM
- IC50 [3]: > 100 µM
- EC50 [4]: > 20 µM
- CC50 [5]: > 100 µM

SMILES: COC(=O)c1ccc(C(=O)c2cc(=O)n(O)c(=O)[nH]2)cc1
- IC50 [1]: 0.031 µM
- IC50 [2]: > 10 µM
- IC50 [3]: 13 µM
- EC50 [4]: > 20 µM
- CC50 [5]: > 100 µM

SMILES: COc1ccc(-c2ccc(C(=O)c3cc(=O)n(O)c(=O)[nH]3)cc2)cc1
- IC50 [1]: 0.53 µM
- IC50 [2]: 5.9 µM
- IC50 [3]: > 100 µM
- EC50 [4]: > 20 µM
- CC50 [5]: > 100 µM
